The source of these data is ChEMBL document CHEMBL1133900, “Improved synthesis and evaluation of 17-substituted aminoalkylgeldanamycin derivatives applicable to drug delivery systems” (Bioorg Med Chem Lett, 2001).

In this assay the test system is A2780. Nature of the assay: Compound was evaluated for antiproliferative activity against human ovarian carcinoma cell line A2780. Format: functional, cell-based.
The IC50 is the concentration that inhibits the measured activity by half. In turn, `CO[C@H]1/C=C\C=C(/C)C(=O)NC2=CC(=O)C(NCC(O)CN)=C(C[C@@H](C)C[C@H](OC)[C@H](O)[C@@H](C)/C=C(\C)[C@@H]1OC(N)=O)C2=O` (stereo partly drawn) yielded an IC50 of 234 nM. In turn, `CO[C@H]1/C=C\C=C(/C)C(=O)NC2=CC(=O)C(NCCCN)=C(C[C@@H](C)C[C@H](OC)[C@H](O)[C@@H](C)/C=C(\C)[C@@H]1OC(N)=O)C2=O` had an IC50 of 136 nM. As for `COC1=C2C[C@@H](C)C[C@H](OC)[C@H](O)[C@@H](C)/C=C(\C)[C@H](OC(N)=O)[C@@H](OC)/C=C\C=C(/C)C(=O)NC(=CC1=O)C2=O` [GELDANAMYCIN], the figure is 3.4 nM.
